Data as given in US10947271B2, “Antibacterial agents” (THE UNIVERSITY OF QUEENSLAND, priority 2014, dated 2021).

Legend:
Format in all cases: cell-based
Conditions in all cases: 24 h incubation, visual reading
[1] = tested on: Staphylococcus aureus MRSA ATCC 43300; assay: MIC assay, S. aureus MRSA ATCC 43300
How it was run: (§1)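 MHB broth microdilution, twofold series, compounds 8–0.003 μg/ml; mid-log inoculum 5×10e5 CFU/mL; 37° C, 24 h; MIC read visually as lowest concentration without growth.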

[2] = tested on: Streptococcus pneumoniae MDR ATCC 700677; assay: MIC assay, S. pneumoniae MDR ATCC 700677
How it was run: as §1

[3] = tested on: Enterococcus faecium MDR Van A ATCC 51559; assay: MIC assay, E. faecium MDR Van A ATCC 51559
How it was run: as §1

| Minimum Inhibitory Concentration (MIC) Staph. aureus ATCC43300 [1] | Minimum Inhibitory Concentration (MIC) S. pneumoniae ATCC 700677 [2] | Minimum Inhibitory Concentration (MIC) E. faecium ATCC51559 [3] | SMILES |
| --- | --- | --- | --- |
| xx (xx = 1-4) | x (x = >4) | x (x = >4) | CCC(=O)N[C@@H](CCCCN)C(=O)N[C@@H](CCCCN)C(=O)N[C@@H](CCCCNC(=O)[C@H]1NC(=O)[C@H]2NC(=O)[C@H](NC(=O)[C@@H]3NC(=O)[C@H](CC(N)=O)NC(=O)[C@H](NC(=O)[C@@H](CC(C)C)NC)[C@H](O)c4ccc(c(Cl)c4)Oc4cc3cc(c4O[C@@H]3O[C@H](CO)[C@@H](O)[C@H](O)[C@H]3O[C@H]3C[C@](C)(N)[C@H](O)[C@H](C)O3)Oc3ccc(cc3Cl)[C@H]2O)c2ccc(O)c(c2)-c2c(O)cc(O)cc21)C(=O)O [MCC_005388] |
| xxxxx (xxxxx = <0.01) | xxxxx (xxxxx = <0.01) | xxxx (xxxx = 0.01-<0.1) | CCCCCCCCCCCCCC(=O)N[C@@H](CCCCN)C(=O)N[C@@H](CCCCN)C(=O)NCC(=O)NCCCNC(=O)[C@H]1NC(=O)[C@H]2NC(=O)[C@H](NC(=O)[C@@H]3NC(=O)[C@H](CC(N)=O)NC(=O)[C@H](NC(=O)[C@@H](CC(C)C)NC)[C@H](O)c4ccc(c(Cl)c4)Oc4cc3cc(c4O[C@@H]3O[C@H](CO)[C@@H](O)[C@H](O)[C@H]3O[C@H]3C[C@](C)(N)[C@H](O)[C@H](C)O3)Oc3ccc(cc3Cl)[C@H]2O)c2ccc(O)c(c2)-c2c(O)cc(O)cc21 [MCC_000784] |
| xx (xx = 1-4) | xxx (xxx = 0.1-<1) | x (x = >4) | CCCCCCCC(=O)NC(CCCCN)C(=O)NC(CCCCN)C(=O)NC(CCCCNC(=O)C1NC(=O)C2NC(=O)C(NC(=O)C3NC(=O)C(CC(N)=O)NC(=O)C(NC(=O)C(CC(C)C)NC)C(O)c4ccc(c(Cl)c4)Oc4cc3cc(c4OC3OC(CO)C(O)C(O)C3OC3CC(C)(N)C(O)C(C)O3)Oc3ccc(cc3Cl)C2O)c2ccc(O)c(c2)-c2c(O)cc(O)cc21)C(=O)NC (stereo not drawn) [MCC_000489] |
| xxxx (xxxx = 0.01-<0.1) | xxxxx (xxxxx = <0.01) | x (x = >4) | CCCCCCCC(=O)NCCCCC(NC(=O)CCCCCCC)C(=O)NC(CCCCN)C(=O)NC(CCCCNC(=O)C1NC(=O)C2NC(=O)C(NC(=O)C3NC(=O)C(CC(N)=O)NC(=O)C(NC(=O)C(CC(C)C)NC)C(O)c4ccc(c(Cl)c4)Oc4cc3cc(c4OC3OC(CO)C(O)C(O)C3OC3CC(C)(N)C(O)C(C)O3)Oc3ccc(cc3Cl)C2O)c2ccc(O)c(c2)-c2c(O)cc(O)cc21)C(=O)NC (stereo not drawn) [MCC_000490] |
| xxxxx (xxxxx = <0.01) | xxxxxx | x (x = >4) | CCCCCCCCCC(=O)NC(CCCCN)C(=O)NC(CCCCN)C(=O)NC(CCCCNC(=O)C1NC(=O)C2NC(=O)C(NC(=O)C3NC(=O)C(CC(N)=O)NC(=O)C(NC(=O)C(CC(C)C)NC)C(O)c4ccc(c(Cl)c4)Oc4cc3cc(c4OC3OC(CO)C(O)C(O)C3OC3CC(C)(N)C(O)C(C)O3)Oc3ccc(cc3Cl)C2O)c2ccc(O)c(c2)-c2c(O)cc(O)cc21)C(=O)NC (stereo not drawn) [MCC_000492] |
| xxxxx (xxxxx = <0.01) | xxxxx (xxxxx = <0.01) | xxx (xxx = 0.1-<1) | CCCCCCCCCOc1ccc(C(=O)NC(CCCCN)C(=O)NC(CCCCN)C(=O)NC(CCCCNC(=O)C2NC(=O)C3NC(=O)C(NC(=O)C4NC(=O)C(CC(N)=O)NC(=O)C(NC(=O)C(CC(C)C)NC)C(O)c5ccc(c(Cl)c5)Oc5cc4cc(c5OC4OC(CO)C(O)C(O)C4OC4CC(C)(N)C(O)C(C)O4)Oc4ccc(cc4Cl)C3O)c3ccc(O)c(c3)-c3c(O)cc(O)cc32)C(=O)NC)cc1 (stereo not drawn) [MCC_000504] |

Second part, the molecule before the results:

| SMILES | Minimum Inhibitory Concentration (MIC) Staph. aureus ATCC43300 [1] | Minimum Inhibitory Concentration (MIC) S. pneumoniae ATCC 700677 [2] | Minimum Inhibitory Concentration (MIC) E. faecium ATCC51559 [3] |
| --- | --- | --- | --- |
| CCCCCC1CCC(C(=O)N[C@@H](CCCCN)C(=O)N[C@@H](CCCCN)C(=O)N[C@@H](CCCCNC(=O)[C@H]2NC(=O)[C@H]3NC(=O)[C@H](NC(=O)[C@@H]4NC(=O)[C@H](CC(N)=O)NC(=O)[C@H](NC(=O)[C@@H](CC(C)C)NC)[C@H](O)c5ccc(c(Cl)c5)Oc5cc4cc(c5O[C@@H]4O[C@H](CO)[C@@H](O)[C@H](O)[C@H]4O[C@H]4C[C@](C)(N)[C@H](O)[C@H](C)O4)Oc4ccc(cc4Cl)[C@H]3O)c3ccc(O)c(c3)-c3c(O)cc(O)cc32)C(=O)O)CC1 (stereo partly drawn) [MCC_005503] | xxxx (xxxx = 0.01-<0.1) | xxxx (xxxx = 0.01-<0.1) | xx (xx = 1-4) |
| CCCCCCCCCCCCCC(=O)NCCCC[C@H](NC(=O)CCCCCCCCCCCCC)C(=O)N[C@@H](CCCCN)C(=O)N[C@@H](CCCCN)C(=O)N[C@@H](CCCCNC(=O)[C@H]1NC(=O)[C@H]2NC(=O)[C@H](NC(=O)[C@@H]3NC(=O)[C@H](CC(N)=O)NC(=O)[C@H](NC(=O)[C@@H](CC(C)C)NC)[C@H](O)c4ccc(c(Cl)c4)Oc4cc3cc(c4O[C@@H]3O[C@H](CO)[C@@H](O)[C@H](O)[C@H]3O[C@H]3C[C@](C)(N)[C@H](O)[C@H](C)O3)Oc3ccc(cc3Cl)[C@H]2O)c2ccc(O)c(c2)-c2c(O)cc(O)cc21)C(=O)NC [MCC_000771] | x (x = >4) | x (x = >4) | x (x = >4) |
| CCCCCCCC(=O)N[C@@H](CCCCN)C(=O)NCCNC(=O)[C@H]1NC(=O)[C@H]2NC(=O)[C@H](NC(=O)[C@@H]3NC(=O)[C@H](CC(N)=O)NC(=O)[C@H](NC(=O)[C@@H](CC(C)C)NC)[C@H](O)c4ccc(c(Cl)c4)Oc4cc3cc(c4O[C@@H]3O[C@H](CO)[C@@H](O)[C@H](O)[C@H]3O[C@H]3C[C@](C)(N)[C@H](O)[C@H](C)O3)Oc3ccc(cc3Cl)[C@H]2O)c2ccc(O)c(c2)-c2c(O)cc(O)cc21 [MCC_005183] | xxx (xxx = 0.1-<1) | xxx (xxx = 0.1-<1) | x (x = >4) |
| CCCCCCCCCC(=O)N[C@@H](CCCCN1CCCCC1)C(=O)N[C@@H](CCCCNC(=O)[C@H]1NC(=O)[C@H]2NC(=O)[C@H](NC(=O)[C@@H]3NC(=O)[C@H](CC(N)=O)NC(=O)[C@H](NC(=O)[C@@H](CC(C)C)NC)[C@H](O)c4ccc(c(Cl)c4)Oc4cc3cc(c4O[C@@H]3O[C@H](CO)[C@@H](O)[C@H](O)[C@H]3O[C@H]3C[C@](C)(N)[C@H](O)[C@H](C)O3)Oc3ccc(cc3Cl)[C@H]2O)c2ccc(O)c(c2)-c2c(O)cc(O)cc21)C(=O)O [MCC_007328] | xxx (xxx = 0.1-<1) | xxx (xxx = 0.1-<1) | x (x = >4) |
| CCCCCCCCC(=O)N[C@@H](CCCCN(C)C)C(=O)N[C@@H](CCCCNC(=O)[C@H]1NC(=O)[C@H]2NC(=O)[C@H](NC(=O)[C@@H]3NC(=O)[C@H](CC(N)=O)NC(=O)[C@H](NC(=O)[C@@H](CC(C)C)NC)[C@H](O)c4ccc(c(Cl)c4)Oc4cc3cc(c4O[C@@H]3O[C@H](CO)[C@@H](O)[C@H](O)[C@H]3O[C@H]3C[C@](C)(N)[C@H](O)[C@H](C)O3)Oc3ccc(cc3Cl)[C@H]2O)c2ccc(O)c(c2)-c2c(O)cc(O)cc21)C(=O)O [MCC_007386] | xx (xx = 1-4) | xx (xx = 1-4) | x (x = >4) |
| CN[C@H](CC(C)C)C(=O)N[C@H]1C(=O)N[C@@H](CC(N)=O)C(=O)N[C@H]2C(=O)N[C@H]3C(=O)N[C@H](C(=O)N[C@H](C(=O)NCCCC[C@H](NC(=O)[C@H](CCCCN)NC(=O)[C@H](CCCCN)NC(=O)CCCOc4ccccc4)C(=O)O)c4cc(O)cc(O)c4-c4cc3ccc4O)[C@H](O)c3ccc(c(Cl)c3)Oc3cc2cc(c3O[C@@H]2O[C@H](CO)[C@@H](O)[C@H](O)[C@H]2O[C@H]2C[C@](C)(N)[C@H](O)[C@H](C)O2)Oc2ccc(cc2Cl)[C@H]1O [MCC_005501] | xx (xx = 1-4) | xx (xx = 1-4) | x (x = >4) |
| CNC(=O)[C@H](CCCCNC(=O)[C@H]1NC(=O)[C@H]2NC(=O)[C@H](NC(=O)[C@@H]3NC(=O)[C@H](CC(N)=O)NC(=O)[C@H](NC(=O)[C@@H](CC(C)C)NC)[C@H](O)c4ccc(c(Cl)c4)Oc4cc3cc(c4O[C@@H]3O[C@H](CO)[C@@H](O)[C@H](O)[C@H]3O[C@H]3C[C@](C)(N)[C@H](O)[C@H](C)O3)Oc3ccc(cc3Cl)[C@H]2O)c2ccc(O)c(c2)-c2c(O)cc(O)cc21)NC(=O)[C@H](CCCCN)NC(=O)[C@H](CCCCN)NS(=O)(=O)c1ccc(C)cc1 [MCC_000764] | xx (xx = 1-4) | xx (xx = 1-4) | x (x = >4) |
| CNC(=O)[C@H](CCCCNC(=O)[C@H]1NC(=O)[C@H]2NC(=O)[C@H](NC(=O)[C@@H]3NC(=O)[C@H](CC(N)=O)NC(=O)[C@H](NC(=O)[C@@H](CC(C)C)NC)[C@H](O)c4ccc(c(Cl)c4)Oc4cc3cc(c4O[C@@H]3O[C@H](CO)[C@@H](O)[C@H](O)[C@H]3O)Oc3ccc(cc3Cl)[C@H]2O)c2ccc(O)c(c2)-c2c(O)cc(O)cc21)NC(=O)[C@H](CCCCN)NC(=O)[C@H](CCCCN)NC(=O)[C@H](CCCCNC(=O)Cc1ccc(-c2ccccc2)cc1)NC(=O)Cc1ccc(-c2ccccc2)cc1 [MCC_000653] | xxxx (xxxx = 0.01-<0.1) | xxxx (xxxx = 0.01-<0.1) | xx (xx = 1-4) |
